Measured values reported in PMC11882969 (Nature Communications, 2025).
≈ marks a conversion by molar mass, not a printed value. Where “and” joins values, the source holds several entries; their conditions need not be identical. Equal values may be shown once. Read-outs that look alike come from different tables or passages of the source.

Columns and labels:
[1] = target: panel of 320 non-olfactory GPCRs (Homo sapiens, UniProt P08913); assay type: cell-based
[2] = target: panel of 320 non-olfactory GPCRs (Homo sapiens, UniProt P51681); assay type: cell-based
Chain of panel of 320 non-olfactory GPCRs (Homo sapiens, UniProt P51681) (P51681 whole entry): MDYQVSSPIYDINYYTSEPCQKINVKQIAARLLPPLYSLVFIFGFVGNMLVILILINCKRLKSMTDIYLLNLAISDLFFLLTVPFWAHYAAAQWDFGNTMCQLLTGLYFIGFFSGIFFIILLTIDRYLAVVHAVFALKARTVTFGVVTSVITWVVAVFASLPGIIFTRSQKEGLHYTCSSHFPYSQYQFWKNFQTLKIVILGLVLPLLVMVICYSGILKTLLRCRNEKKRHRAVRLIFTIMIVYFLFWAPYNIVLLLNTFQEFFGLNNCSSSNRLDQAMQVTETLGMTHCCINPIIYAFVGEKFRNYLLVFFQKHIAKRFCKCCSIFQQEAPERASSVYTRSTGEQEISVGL

[3] = target: panel of 320 non-olfactory GPCRs (Homo sapiens, UniProt Q8IZ08); assay type: cell-based
Chain of panel of 320 non-olfactory GPCRs (Homo sapiens, UniProt Q8IZ08) (Q8IZ08 whole entry): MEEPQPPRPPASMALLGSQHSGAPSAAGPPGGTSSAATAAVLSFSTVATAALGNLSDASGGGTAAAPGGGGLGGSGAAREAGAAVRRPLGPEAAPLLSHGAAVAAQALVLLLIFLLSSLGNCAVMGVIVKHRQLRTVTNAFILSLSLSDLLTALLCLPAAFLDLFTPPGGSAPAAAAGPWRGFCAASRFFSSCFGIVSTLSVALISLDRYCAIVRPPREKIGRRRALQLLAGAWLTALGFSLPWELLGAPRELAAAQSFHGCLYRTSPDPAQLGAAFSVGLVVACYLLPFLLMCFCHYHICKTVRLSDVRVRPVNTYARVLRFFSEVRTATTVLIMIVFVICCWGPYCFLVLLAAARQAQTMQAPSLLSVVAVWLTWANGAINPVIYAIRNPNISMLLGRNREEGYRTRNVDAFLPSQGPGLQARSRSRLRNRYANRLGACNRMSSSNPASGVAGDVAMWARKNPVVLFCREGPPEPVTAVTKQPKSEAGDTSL

[4] = target: panel of 320 non-olfactory GPCRs (Homo sapiens, UniProt Q8IZF5); assay type: cell-based
Chain of panel of 320 non-olfactory GPCRs (Homo sapiens, UniProt Q8IZF5) (Q8IZF5 26-1079): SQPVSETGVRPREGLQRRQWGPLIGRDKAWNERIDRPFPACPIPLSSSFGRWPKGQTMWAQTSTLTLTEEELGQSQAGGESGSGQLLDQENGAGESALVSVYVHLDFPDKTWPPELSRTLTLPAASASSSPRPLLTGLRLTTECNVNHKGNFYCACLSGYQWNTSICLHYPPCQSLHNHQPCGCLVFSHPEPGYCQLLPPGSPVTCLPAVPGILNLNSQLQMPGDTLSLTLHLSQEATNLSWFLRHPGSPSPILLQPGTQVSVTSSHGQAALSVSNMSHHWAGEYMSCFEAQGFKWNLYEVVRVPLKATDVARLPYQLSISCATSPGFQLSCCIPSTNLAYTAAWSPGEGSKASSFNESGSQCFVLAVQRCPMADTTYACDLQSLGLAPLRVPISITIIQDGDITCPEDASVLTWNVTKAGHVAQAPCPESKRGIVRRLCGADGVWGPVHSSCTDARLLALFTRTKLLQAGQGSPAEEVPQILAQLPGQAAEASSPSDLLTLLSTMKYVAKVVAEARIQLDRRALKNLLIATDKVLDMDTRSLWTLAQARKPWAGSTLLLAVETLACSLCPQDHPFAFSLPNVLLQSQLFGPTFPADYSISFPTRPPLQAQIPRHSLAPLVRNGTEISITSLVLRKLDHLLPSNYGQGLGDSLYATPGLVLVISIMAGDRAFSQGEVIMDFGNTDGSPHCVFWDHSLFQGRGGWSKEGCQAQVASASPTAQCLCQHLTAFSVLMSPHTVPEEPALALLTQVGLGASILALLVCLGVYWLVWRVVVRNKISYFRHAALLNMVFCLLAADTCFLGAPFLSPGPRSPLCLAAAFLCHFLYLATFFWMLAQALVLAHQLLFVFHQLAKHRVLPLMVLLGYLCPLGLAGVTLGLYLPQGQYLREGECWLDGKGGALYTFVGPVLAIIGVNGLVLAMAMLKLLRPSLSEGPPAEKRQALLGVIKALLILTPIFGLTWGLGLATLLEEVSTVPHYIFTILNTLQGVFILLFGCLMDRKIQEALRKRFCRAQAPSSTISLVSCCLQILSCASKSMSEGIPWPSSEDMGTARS

[5] = target: panel of 320 non-olfactory GPCRs (Homo sapiens, UniProt Q8IZF7); assay type: cell-based
[6] = target: panel of 320 non-olfactory GPCRs (Homo sapiens, UniProt Q96P69); assay type: cell-based
Chain of panel of 320 non-olfactory GPCRs (Homo sapiens, UniProt Q96P69) (Q96P69 whole entry): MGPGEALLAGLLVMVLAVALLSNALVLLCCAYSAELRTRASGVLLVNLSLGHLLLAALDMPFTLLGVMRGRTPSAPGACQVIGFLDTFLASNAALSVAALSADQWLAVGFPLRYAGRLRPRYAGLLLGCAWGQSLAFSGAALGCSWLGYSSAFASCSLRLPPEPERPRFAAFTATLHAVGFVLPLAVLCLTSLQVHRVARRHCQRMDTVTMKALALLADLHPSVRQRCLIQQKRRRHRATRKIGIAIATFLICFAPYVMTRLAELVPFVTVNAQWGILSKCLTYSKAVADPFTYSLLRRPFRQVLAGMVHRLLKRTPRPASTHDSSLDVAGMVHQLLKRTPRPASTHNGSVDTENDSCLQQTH

[7] = target: panel of 320 non-olfactory GPCRs (Homo sapiens, UniProt Q9H3N8); assay type: cell-based
[8] = target: panel of 320 non-olfactory GPCRs (Homo sapiens, UniProt Q9UPC5); assay type: cell-based
Chain of panel of 320 non-olfactory GPCRs (Homo sapiens, UniProt Q9UPC5) (Q9UPC5 whole entry): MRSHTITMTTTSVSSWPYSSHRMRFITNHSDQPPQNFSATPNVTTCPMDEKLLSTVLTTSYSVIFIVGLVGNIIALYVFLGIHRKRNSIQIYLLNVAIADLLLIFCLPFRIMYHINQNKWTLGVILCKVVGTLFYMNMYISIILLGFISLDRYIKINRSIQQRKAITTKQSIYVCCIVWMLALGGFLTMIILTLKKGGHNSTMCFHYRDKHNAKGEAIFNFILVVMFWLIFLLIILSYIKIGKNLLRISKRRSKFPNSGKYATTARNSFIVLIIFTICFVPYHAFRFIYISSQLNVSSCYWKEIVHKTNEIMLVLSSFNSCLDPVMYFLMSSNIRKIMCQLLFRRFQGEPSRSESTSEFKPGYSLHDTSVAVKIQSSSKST

mice [9] = assay: CFA inflammatory pain model; assay type: in vivo, mouse
Protocol: The CFA model of chronic inflammation was induced as described previously. Briefly, CFA (Sigma) was diluted 1:1 with saline and vortexed for 30 min. When fully suspended, we injected 20 μL of CFA into one hindpaw. Heat thresholds were measured before the injection (baseline) and 3 days after the injection using the Hargreaves test.

mice [10] = assay: Conditioned place preference; assay type: in vivo, mouse
Protocol: Briefly, mice were first habituated to the test apparatus, twice, and their preference for each chamber recorded for 30 min (Pretest). Two conditioning days followed in which mice received the vehicle control or the compound, and 30 min later restricted for 30 min in the preferred or non-preferred chamber, respectively. On day 5 (Test day), mice were allowed to roam freely between the 3 chambers of the apparatus and their preference for each chamber recorded for 30 min. To calculate the CPP score, we subtracted the time spent in each chamber of the box on the Pretest day from that of the Test day (CPP score = Test - Pretest).

mice [11] = assay: Formalin test; assay type: in vivo, mouse; settings: for formalin test response per time bin (Figure5c), individual animals: 0.2 mg/kg
Protocol: Thirty min after an i.p. injection of the compounds, mice received an intraplantar injection of a 20μL solution containing 2% formalin (Acros Organics) and we recorded the time mice spent licking/biting/guarding (nocifensive behaviors) the injected hindpaw over the next 60 min.

[12] = mouse plasma, 1.0 µM
[13] = relative to 100 at 0 min
physchem = settings: phosphate-buffered saline, 25 °C, pH 7.4, aqueous buffer, kinetic from dmso stock
in vitro = settings: mouse, pH 7.4
P-gp (human MDR1) = assay: in vitro; settings: dog, MDCK-MDR1, pH 7.4
hCB1 = hCB1 (Homo sapiens, UniProt P21554); assay: Cerep HTRF cAMP inhibition assay, hCB1 CHO-K1; assay type: cell-based; set-up: host or cells: HEK293SL cells, transient PEI transfection
[14] = target: panel of 320 non-olfactory GPCRs (Homo sapiens, UniProt O95977); assay type: cell-based
[15] = target: panel of 320 non-olfactory GPCRs (Homo sapiens, UniProt P30559); assay type: cell-based
[16] = target: panel of 320 non-olfactory GPCRs (Homo sapiens, UniProt P30939); assay type: cell-based
Chain of panel of 320 non-olfactory GPCRs (Homo sapiens, UniProt P30939) (P30939 whole entry): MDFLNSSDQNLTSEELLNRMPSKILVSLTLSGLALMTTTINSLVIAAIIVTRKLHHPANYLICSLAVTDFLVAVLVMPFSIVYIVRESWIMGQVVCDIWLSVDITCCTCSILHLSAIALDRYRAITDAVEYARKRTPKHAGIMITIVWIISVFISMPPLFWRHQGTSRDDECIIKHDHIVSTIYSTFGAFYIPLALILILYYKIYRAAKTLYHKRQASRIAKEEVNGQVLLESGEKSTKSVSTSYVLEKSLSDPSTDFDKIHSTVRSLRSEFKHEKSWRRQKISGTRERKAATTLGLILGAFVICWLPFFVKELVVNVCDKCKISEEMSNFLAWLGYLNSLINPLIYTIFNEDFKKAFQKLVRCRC

[17] = target: panel of 320 non-olfactory GPCRs (Homo sapiens, UniProt Q13639); assay type: cell-based
Chain of panel of 320 non-olfactory GPCRs (Homo sapiens, UniProt Q13639) (Q13639 whole entry): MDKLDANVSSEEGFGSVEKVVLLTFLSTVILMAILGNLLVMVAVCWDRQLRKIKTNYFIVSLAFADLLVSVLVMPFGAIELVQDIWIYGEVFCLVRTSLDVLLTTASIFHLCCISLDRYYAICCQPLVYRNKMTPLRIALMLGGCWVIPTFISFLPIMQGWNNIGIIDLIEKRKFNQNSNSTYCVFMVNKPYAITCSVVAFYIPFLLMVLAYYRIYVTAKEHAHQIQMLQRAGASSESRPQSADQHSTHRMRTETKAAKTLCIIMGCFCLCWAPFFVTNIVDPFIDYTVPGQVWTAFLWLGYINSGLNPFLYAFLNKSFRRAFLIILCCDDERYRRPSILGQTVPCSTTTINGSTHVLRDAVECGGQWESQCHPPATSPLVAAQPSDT

[18] = target: panel of 320 non-olfactory GPCRs (Homo sapiens, UniProt Q14330); assay type: cell-based
Chain of panel of 320 non-olfactory GPCRs (Homo sapiens, UniProt Q14330) (Q14330 whole entry): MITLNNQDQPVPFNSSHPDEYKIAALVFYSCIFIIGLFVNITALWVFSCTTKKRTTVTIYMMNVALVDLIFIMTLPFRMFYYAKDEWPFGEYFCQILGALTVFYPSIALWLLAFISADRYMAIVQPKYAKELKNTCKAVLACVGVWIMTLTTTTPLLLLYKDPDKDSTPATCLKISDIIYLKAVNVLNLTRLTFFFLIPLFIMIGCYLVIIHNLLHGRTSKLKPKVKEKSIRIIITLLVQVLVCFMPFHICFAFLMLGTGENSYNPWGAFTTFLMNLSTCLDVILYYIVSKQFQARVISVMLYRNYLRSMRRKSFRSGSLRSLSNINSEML

[19] = target: panel of 320 non-olfactory GPCRs (Homo sapiens, UniProt Q8NFJ5); assay type: cell-based
[20] = target: panel of 320 non-olfactory GPCRs (Homo sapiens, UniProt Q96AM1); assay type: cell-based
Chain of panel of 320 non-olfactory GPCRs (Homo sapiens, UniProt Q96AM1) (Q96AM1 whole entry): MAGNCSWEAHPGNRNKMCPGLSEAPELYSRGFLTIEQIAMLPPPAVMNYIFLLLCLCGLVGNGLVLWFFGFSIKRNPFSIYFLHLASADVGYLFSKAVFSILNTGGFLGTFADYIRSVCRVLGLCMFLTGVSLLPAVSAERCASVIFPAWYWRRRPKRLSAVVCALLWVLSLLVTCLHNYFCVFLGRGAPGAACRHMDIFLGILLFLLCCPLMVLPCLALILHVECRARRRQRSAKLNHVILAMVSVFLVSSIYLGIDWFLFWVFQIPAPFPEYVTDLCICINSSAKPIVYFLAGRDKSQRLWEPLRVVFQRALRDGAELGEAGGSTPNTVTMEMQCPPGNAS

[21] = target: panel of 320 non-olfactory GPCRs (Homo sapiens, UniProt Q96PE1); assay type: cell-based
[22] = target: panel of 320 non-olfactory GPCRs (Homo sapiens, UniProt Q9Y2T5); assay type: cell-based
Chain of panel of 320 non-olfactory GPCRs (Homo sapiens, UniProt Q9Y2T5) (Q9Y2T5 whole entry): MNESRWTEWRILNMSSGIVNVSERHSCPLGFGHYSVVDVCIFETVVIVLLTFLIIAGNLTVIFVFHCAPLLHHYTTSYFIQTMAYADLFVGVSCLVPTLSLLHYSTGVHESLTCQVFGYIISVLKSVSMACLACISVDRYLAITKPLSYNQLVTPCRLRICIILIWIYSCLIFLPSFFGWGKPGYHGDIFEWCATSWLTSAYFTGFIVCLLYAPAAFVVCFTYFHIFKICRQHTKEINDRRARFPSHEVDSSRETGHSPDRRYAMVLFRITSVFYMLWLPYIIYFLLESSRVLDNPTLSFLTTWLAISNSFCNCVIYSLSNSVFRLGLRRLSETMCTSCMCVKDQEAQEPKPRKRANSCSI

[23] = target: panel of 320 non-olfactory GPCRs (Homo sapiens, UniProt Q9Y5N1); assay type: cell-based

Chain of panel of 320 non-olfactory GPCRs (Homo sapiens, UniProt P08913) (P08913 whole entry): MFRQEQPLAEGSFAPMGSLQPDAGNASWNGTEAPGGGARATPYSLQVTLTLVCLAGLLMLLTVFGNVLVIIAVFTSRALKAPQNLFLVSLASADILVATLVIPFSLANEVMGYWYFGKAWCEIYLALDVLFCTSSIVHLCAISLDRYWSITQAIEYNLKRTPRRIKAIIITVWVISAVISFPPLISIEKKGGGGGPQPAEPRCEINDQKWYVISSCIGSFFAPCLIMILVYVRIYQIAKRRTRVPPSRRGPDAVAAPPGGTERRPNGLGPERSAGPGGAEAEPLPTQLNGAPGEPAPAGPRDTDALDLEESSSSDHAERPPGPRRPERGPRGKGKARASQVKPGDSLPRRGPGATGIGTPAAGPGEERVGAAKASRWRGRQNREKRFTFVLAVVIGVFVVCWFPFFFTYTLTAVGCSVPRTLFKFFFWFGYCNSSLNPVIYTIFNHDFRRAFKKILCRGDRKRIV

COC(=O)[C@@](C)(NC(=O)c1cc(C)n(-c2cccc(C(F)(F)F)c2)n1)c1cccs1 [‘1350]
Fold of Basal RLU [1]: 1.8 fold and 1.4 fold and 1.6 fold and 1.2 fold
Fold of Basal RLU [2]: 0.9 and 0.6 and 1.1 and 0.7
Fold of Basal RLU [3]: 1.2 and 0.9 and 1.6
Fold of Basal RLU [4]: 1.3 and 0.8 and 1.2
Fold of Basal RLU [5]: 0.8 and 0.9 and 0.7 and 0.5
Fold of Basal RLU [6]: 0.8 and 1 and 1.1 and 1.4
Fold of Basal RLU [7]: 1.6 fold and 1.4 fold and 2.4 fold and 1.5 fold
Fold of Basal RLU [8]: 0.7 fold and 1 fold and 1.1 fold and 1.4 fold
effect on paw withdrawal latency after CFA (mice [9]; 0.2 mg/kg i.p.): increasing paw withdrawal latencies to well-above pre-CFA baseline thresholds
CFA inflammatory pain response normalised to baseline (Figure5a), individual animals (mice [9]; 0.2 mg/kg, CFA-treated mice): 134.669 and 178.501 and 55.3352 and 183.627 and 40.7039 and 122.724 and 119
Individual animal scores (FigS11e) (mice [10]; 0.2 mg/kg, test not printed on the sheet): 289 and 48 and 256 and -101 and 11 and -145 and -65 and -179
conditioned place preference (mice [10]; drug-paired vs vehicle-paired chamber): does not induce preference
effect on formalin nocifensive behaviors (mice [11]; 0.2 mg/kg i.p., 60 min): profoundly decreased the duration of both phase 1 and phase 2 nocifensive behaviors
formalin test response per time bin (Figure5c), individual animals (mice [11]; Time 0 min): 0
formalin test response per time bin (Figure5c), individual animals (mice [11]; Time 5 min): 47.9 and 64.7 and 87.7 and 92.8 and 88.1
formalin test response per time bin (Figure5c), individual animals (mice [11]; Time 10 min): 0 (4×) and 6.3
formalin test response per time bin (Figure5c), individual animals (mice [11]; Time 15 min): 0 (3×) and 1.5 and 2.3
formalin test response per time bin (Figure5c), individual animals (mice [11]; Time 20 min): 2.9 and 0 (3×) and 3.6
formalin test response per time bin (Figure5c), individual animals (mice [11]; Time 25 min): 1.9 and 13.6 and 0 (2×) and 21.9
formalin test response per time bin (Figure5c), individual animals (mice [11]; Time 30 min): 0 (2×) and 85 and 92.7 and 5.3
formalin test response per time bin (Figure5c), individual animals (mice [11]; Time 35 min): 1.8 and 59 and 0 (2×) and 91.5
formalin test response per time bin (Figure5c), individual animals (mice [11]; Time 40 min): 2.3 and 173.3 and 5.2 and 106.7 and 40.7
formalin test response per time bin (Figure5c), individual animals (mice [11]; Time 45 min): 3.9 and 181.8 and 5.2 and 10 and 11.7
formalin test response per time bin (Figure5c), individual animals (mice [11]; Time 50 min): 8.3 and 48.5 and 11.2 and 3.8 and 50.2
formalin test response per time bin (Figure5c), individual animals (mice [11]; Time 55 min): 40.3 and 35.4 and 0 (3×)
formalin test response per time bin (Figure5c), individual animals (mice [11]; Time 60 min): 2.4 and 30.9 and 0 (3×)
Mean % of bound compound [12]: 94%
Stability ([12]; 5 h): 11%
Stability time course, Mean (FS10f) ([13]; Time 0 min): 100
Stability time course, Mean (FS10f) ([13]; Time 7 min): 13.0354
Stability time course, Mean (FS10f) ([13]; Time 15 min): 0.461
Stability time course, Mean (FS10f) ([13]; Time 25 min): 0.1608
Stability time course, Mean (FS10f) ([13]; Time 40 min): 0.1274
solubility at 2 h (physchem): 23 µM (≈ 10.1 µg/mL)
recovery at 5 h, 1 μM (in vitro): 107%
efflux ratio at 90 min, 10 μM (P-gp (human MDR1)): 1.3

COC(=O)C(C)(NC(=O)c1cc(C)n(-c2cccc(C(F)(F)F)c2)n1)c1cccs1 (stereo not drawn) [‘4042]
Emax (hCB1; CHO-K1): 96%
Cerep cAMP pEC50 (hCB1; hCB1): 11.1

Cc1cc(C(=O)NC(C)(c2ccco2)c2ccco2)nn1-c1cccc(C(F)(F)F)c1 [‘4936]
Fold of Basal RLU [14]: 0.7 fold and 0.5 fold
Fold of Basal RLU [15]: 0.9 and 0.8 and 1
Fold of Basal RLU [16]: 0.8 fold and 1.5 fold and 0.9 fold
Fold of Basal RLU [17]: 1 fold and 1.6 fold and 0.9 fold
Fold of Basal RLU [18]: 1.1 fold and 1.3 fold and 1.6 fold and 1.7 fold
Fold of Basal RLU [19]: 0.6 fold and 0.7 fold and 0.5 fold
Fold of Basal RLU [20]: 0.6 fold and 0.8 fold and 0.9 fold
Fold of Basal RLU [21]: 0.6 fold and 0.5 fold and 0.9 fold and 1 fold
Fold of Basal RLU [22]: 1.8 fold and 1.9 fold and 2.1 fold
Fold of Basal RLU [23]: 1 and 0.5 and 0.6
